Data set [1] is classed as physicochemical. The following applies: pH 6.8.
Data set [2] can be described thus: Ketamine wafer safety and tolerability (Likert, Bond and Lader scales) in healthy volunteers. The data set is classed as in vivo, human. As to the method: Safety assessments included scheduled adverse event (AE) probes, spontaneous AE reporting, routine laboratory investigations, 12-lead electrocardiograms (ECGs) and vital sign evaluation during a 24 hour period from start of dosing. A full physical examination was performed before the first dosing occasion and 24 hours after the second dosing occasion.
Local tolerability was assessed, by using Likert scales, at pre dose, 5, 10, 15, 30 and 45 minutes and one hour post dose administration. Modified Bond and Lader scales to assess sedation and altered perception, by using the three factors “alertness”, “contentedness” and “calmness”, were performed at pre dose, 30 minutes post dose and at hours 1, 1.5, 2, 2.5, 3, 4, 6, 8, 12, and 24 hours post dose administration.
The Bond and Lader scales comprise a total of 16 100-mm lines anchored at either end by antonyms. Participants marked their current subjective state between the antonyms on the line. Each line was scored as millimetres to the mark from the negative antonym. From the resultant scores, three measures derived by factor analysis were isolated. […]

Data set [3] in a line: Ketamine wafer pharmacokinetics and absolute bioavailability, crossover study in healthy volunteers. Conditions: for extrapolated portion of the AUC, AUCextr: range over subjects; for time of first quantifiable plasma concentration: all subjects.
[4] abbreviates: gmean of eight volunteers, 10 mg as 30 minute IV infusion.
[5] abbreviates: human, plasma, other: sublingual, 25 mg.
Setting [6] is: individual subjects, 10 mg as 30 minute IV infusion.
[7] abbreviates: individual subjects, 25 mg SL wafer.
[8] abbreviates: median of eight volunteers, 25 mg SL.

Several values for one entry are separate records, joined by “and”; a condition that tells them apart may be missing. Identical values can stand only once.

As to `Cc1ncc2n1-c1ccc(Cl)cc1C(c1ccccc1F)=NC2` [midazolam powder, midazolam], the “dissolution rate compared with wafer” value in data set [1] is given as “considerably slower”.
Take `CNC1(c2ccccc2Cl)CCCCC1=O` (racemic) [RS ketamine, ketamine]: the “Bond and Lader mood rating scales (alertness, contentedness, calmness)” value in data set [2] (10 mg IV and 25 mg SL, 24 hr observation) was “no clear trends for effects”. Also, the “ECG, vital signs, haematology, clinical chemistry, urinalysis” value in data set [2] (healthy volunteers) is “no clinically relevant changes or trends for abnormalities”. Also, the “extrapolated portion of the AUC, AUCextr” value in data set [3] (IV 10 mg) is listed as 3-7%; in data set [3] (SL 25 mg), 2-9%. Further, the “time of first quantifiable plasma concentration” value in data set [3] (IV dosing 10 mg) and in data set [3] (SL dosing 25 mg) was “five” each time. The “Cmax,I” value in data set [3] (setting [4]) is 128.0 ng/mL; in data set [3] (individual subjects, 10 mg as 30 minute IV infusion, plasma), 190.2 ng/mL and 124.2 ng/mL and 120.3 ng/mL and 101.8 ng/mL and 83.18 ng/mL and 81.12 ng/mL and 226.6 ng/mL and 163.2 ng/mL. Besides, the VZ in data set [3] (setting [4]) is 237 L; in data set [3] (setting [6]), 283 L and 253 L and 300 L and 164 L and 385 L and 375 L and 126 L and 158 L. Also, the MRT (as a rule, the average time that molecules of a dose stay in the body) in data set [3] (human, plasma, iv, 10 mg) was 3.9 h; in data set [3] (setting [5]), 3.8 h. In addition, the half-life (in general, the time needed for the level to fall by half in the phase considered) in data set [3] (human, plasma, iv, 10 mg) was 7 h. Moreover, the AUC (commonly concentration integrated over time) in data set [3] (human, plasma, iv, 10 mg, AUCINF__, gmean of eight volunteers, 10 mg as 30 minute IV infusion) turned out to be 255 ng·h/mL; in data set [3] (human, plasma, iv, 10 mg, AUCINF__, individual subjects, 10 mg as 30 minute IV infusion) it was 255 ng·h/mL; in data set [3] (human, plasma, other: sublingual, 25 mg, AUCINF_, gmean of eight volunteers, 25 mg SL wafer), 185 ng·h/mL; in data set [3] (human, plasma, other: sublingual, 25 mg, AUCINF_, individual subjects, 25 mg SL wafer), 184 ng·h/mL. Moreover, the clearance (as a rule, the volume of plasma or blood freed of the substance per unit of time) in data set [3] (human, plasma, iv, 10 mg, CL, gmean of eight volunteers, 10 mg as 30 minute IV infusion) was 654 mL/min; in data set [3] (human, plasma, iv, 10 mg, CL, individual subjects, 10 mg as 30 minute IV infusion), 655 mL/min; in data set [3] (human, plasma, iv, 10 mg, Median CL, IV dosing 10 mg), 628 mL/min. Further, the Cmax (commonly the highest concentration seen after dosing) in data set [3] (human, plasma, iv, 10 mg, Cmax,I, gmean of eight volunteers, 10 mg as 30 minute IV infusion) is 128 ng/mL; in data set [3] (human, plasma, other: sublingual, 25 mg, Cmax,S, gmean of eight volunteers, 25 mg SL wafer), 71.1 ng/mL. The Tmax (usually the time from dosing to the highest level) in data set [3] (human, plasma, iv, 10 mg, tmax,IV, individual subjects, 10 mg as 30 minute IV infusion) was 0.5 h; in data set [3] (human, plasma, iv, 10 mg, tmax,IV, median of eight volunteers, 10 mg as 30 minute IV infusion) it was 0.5 h; in data set [3] (human, plasma, other: sublingual, 25 mg, tmax,SL, median of eight volunteers, 25 mg SL wafer) it was 0.75 h. Further, in data set [3] (setting [5]), the bioavailability (as a rule, dose-corrected exposure relative to a reference, in per cent) was in the range of 23 to 38%. For the same molecule, the AUCINF__ in data set [3] (setting [6]) is 270.02 ng·h/mL and 289.22 ng·h/mL and 299.44 ng·h/mL and 261.00 ng·h/mL and 167.21 ng·h/mL and 282.73 ng·h/mL and 243.24 ng·h/mL. The CL in data set [3] (setting [6]) was 37.03 L/h and 34.58 L/h and 33.40 L/h and 38.31 L/h and 59.81 L/h and 35.37 L/h and 41.11 L/h. In addition, the “t1/2,I” value in data set [3] (setting [6]) is 5.0 h and 4.7 h and 6.0 h and 3.4 h and 4.3 h and 2.5 h and 2.7 h; in data set [3] (median of eight volunteers, 10 mg as 30 minute IV infusion), 4.5 h. For the same molecule, the “tmax,IV” value in data set [3] (setting [6]) is 0.6 h and 0.52 h. The “bioavailability F” value in data set [3] (individual subjects, 25 mg SL vs 10 mg IV) was 38% and 29% and 30% and 23% and 28% and 27%; in data set [3] (setting [8]) it was 29 [27, 31] %. Besides, the AUCINF_ in data set [3] (setting [7]) was 203.47 ng·h/mL and 171.90 ng·h/mL and 211.33 ng·h/mL and 186.14 ng·h/mL and 161.64 ng·h/mL and 202.89 ng·h/mL and 162.52 ng·h/mL. The “t1/2,” value in data set [3] (setting [7]) is 3.2 h and 5.5 h and 3.5 h and 2.3 h and 4.6 h and 5.1 h and 2.9 h and 1.8 h; in data set [3] (median of eight volunteers, 25 mg SL wafer), 3.4 h. In data set [3] (setting [7]), the “tmax,SL” value was 1 h and 0.58 h and 0.25 h. Moreover, the “Cmax,S” value in data set [3] (individual subjects, 25 mg SL wafer, plasma) is 78.77 ng/mL and 60.24 ng/mL and 50.02 ng/mL and 76.12 ng/mL and 51.79 ng/mL and 61.17 ng/mL and 88.76 ng/mL and 128.2 ng/mL. Besides, the “mean absorption time MAT” value is −1.1 hr (2×) and 0.86 hr and −0.56 hr and 0.20 hr and 0.64 hr and 1.1 hr and −0.83 hr in data set [3] (individual subjects, 25 mg SL, MRTSL−MRTIV); -0.18 h in data set [3] (setting [8]). Further, the “mean absorption time MAT, Min-Max” value in data set [3] (minimum and maximum of eight volunteers, 25 mg SL) was -1.1 to 1.1 h.

The values above are taken from patent US12186426B2, “Solid dosage form” (IX BIOPHARMA LTD, priority 2009, dated 2025).
